Here are results for 6 compounds from patent US20150283159A1, “ANTICANCER AGENT, AND COMBINATION USE ANTICANCER AGENT” (Microbial Chemistry Research Foundation, priority 2012, published 2015).

Values after ≈ are worked out from the molar mass of the structure shown. Some results are limits rather than exact numbers.

Test [1] concerns Human lung cancer NCI-H460 cells. The test is described as follows: In vitro cell proliferation suppressive activity (MTT method). The test is classed as cell-based. The following applies: 3 days culture; for IC50: Homo sapiens, 72 h, read-out: IC50 (concentration at which 50% of the cell proliferation was suppressed), NCI-H460 cells. Here is the method:
(§1) Proliferation suppressive activities of ellagitannin against various kinds of cancer cell lines were measured in the following manner.
(§2) Each of the following cancer cell lines was placed in a 96-well plate at 5×10^3 cell/100 μL per well using a DMEM medium (product of NISSUI PHARMACEUTICAL CO., LTD.) containing FBS (product of Sigma-Aldrich Co.) in an amount of 10 liquid amount %, and was cultured for 24 hours at 37° C. in an atmosphere of 5% CO2, whereby the cells were allowed to adhere to the plate completely.
(§3) Each of the following ellagitannins was added thereto so as to have final concentrations of 100 μg/mL, 50 μg/mL, 25 μg/mL, 12.5 μg/mL, 6.25 μg/mL, 3.13 μg/mL, 1.56 μg/mL, and 0.78 μg/mL, followed by culturing for 3 days at 37° C. in an atomosphere of 5% CO2.
(§4) In addition, as comparative controls, the 96-well plates to which the cancer cells had been allowed to adhere were cultured for 3 days at 37° C. in an atomosphere of 5% CO2 without addition of ellagitannin.
(§5) After the culturing for 3 days, cell proliferation was measured using the MTT method. The MTT method was performed as follows. Specifically, 10 μL of an MTT solution (a PBS solution containing MTT (3-(4,5-dimethylthiazol-2-yl)-2,5-diphenyltetrazolium bromide) at a concentration of 5 mg/mL) was added to each well and cultured for 4 hours. The formed formazan products were dissolved by adding 100 μL of a 20% SDS solution to each well, and measured for absorbance at 570 nm using LABSYSTEMS MULTISCAN MS (product of DS Pharma Biomedical Co., Ltd.).
(§6) The absorbance of the system involving the addition of the ellagitannin was indicated as “A” and the absorbance of the system of the comparative controls was indicated as “B”, and cell proliferation inhibitory rate (%) was calculated from the following formula (1).
(§7) Cell proliferation inhibitory rate(%)={(B−A)/B}×100 Formula (1)
(§8) Next, the cell proliferation inhibitory rate was used to determine a concentration at which 50% of the cell proliferation was suppressed (IC50 value).

Test [2] deals with Human osteosarcoma SJSA-1 cells. The test is described as above. Type of test: cell-based. The following applies: 3 days culture; for IC50: Homo sapiens, 72 h, read-out: IC50 (concentration at which 50% of the cell proliferation was suppressed), SJSA-1 cells. As for the experimental part: as §1, §2, §3, §4, §5, §6, §7, §8
In test [3] the test system is human lung cancer NCI-H460 cells. The experiment in a line: Antitumor activity-1 in cancer cell-transplanted mice (Test Example 2-1). The test is classed as in vivo, mouse. The following applies: nude mice transplanted with NCI-H460 cells; 12.5 mg/kg, tail vein, twice a week from one week after transplantation; FIG. 2. Here is the method: (§9) The antitumor effect of the geraniin was evaluated by observing the proliferation state of the tumor after the transplantation of the cells. Specifically, a longer diameter and a shorter diameter of each tumor were meatured with a caliper, and a tumor volume was measured from the following formula (2). Its average and standard deviation were obtained to determine the effect in the geraniin-administration groups in comparison to the comparative control groups.
(§10) Tumore volume=longer diameter×(shorter diameter)^2÷2 Formula (2)

Test [4] relates to human osteosarcoma SJSA-1 cells. The test is described as above. Type of test: in vivo, mouse. The following applies: nude mice transplanted with SJSA-1 cells; 12.5 mg/kg, tail vein, twice a week from one week after transplantation; FIG. 1. As for the experimental part: as §9, §10
Test [5] shares this test system. The test is described as follows: Antitumor activity-2 in cancer cell-transplanted mice (Test Example 2-2). Type of test: in vivo, mouse. Particulars: nude mice transplanted with SJSA-1 cells; 12.5, 6.25 or 3.13 mg/kg, tail vein, twice a week; FIG. 3. An excerpt: Eugeniin (product of […] Science Co., Ltd.) was used as the ellagitannin and was studied for antitumor activity in the following manner.

For `O=C(OC1C(O)OC2COC(=O)c3cc(O)c(O)c(O)c3-c3c(cc(O)c(O)c3O)C(=O)OC2C1OC(=O)c1cc(O)c(O)c(O)c1)c1cc(O)c(O)c(O)c1` (stereo not drawn) [Tellimagrandin I, tellimagrandin I], the results for the IC50 in test [1] and in test [2] were 32 µg/mL (≈ 40.7 µM) and 46 µg/mL (≈ 58.5 µM), respectively.
As to `O=C(OC1OC2COC(=O)c3cc(O)c(O)c(O)c3-c3c(cc(O)c(O)c3O)C(=O)OC2C(OC(=O)c2cc(O)c(O)c(O)c2)C1O)c1cc(O)c(O)c(O)c1` (stereo not drawn) [1,3-di-O-galloyl-4,6-O-hexahydroxydiphenoyl glucose], the IC50 in test [1] was 11 µg/mL (≈ 14 µM); in test [2] it was 41 µg/mL (≈ 52.1 µM).
The corresponding values for `O=C(OC1OC2COC(=O)c3cc(O)c(O)c(O)c3-c3c(cc(O)c(O)c3O)C(=O)OC2C(O)C1O)c1cc(O)c(O)c(O)c1` (stereo not drawn) [Strictinin, strictinin] are 33 µg/mL (≈ 52 µM) and ≥ 110 µg/mL.
With casuarictin, the “IC50 (concentration at which 50% of the cell proliferation was suppressed), NCI-H460 cells” value in test [1] worked out at 35 µg/mL. Moreover, the “IC50 (concentration at which 50% of the cell proliferation was suppressed), SJSA-1 cells” value in test [2] was 61 µg/mL.
Regarding `O=C1O[C@H]2[C@@H]3OC(=O)c4cc(O)c(O)c(O)c4-c4c(cc(O)c(O)c4O)C(=O)OC[C@H]2O[C@@H](OC(=O)c2cc(O)c(O)c(O)c2)[C@@H]3OC(=O)c2cc(O)c(O)c3c2[C@@H]2C1=CC(=O)[C@](O)(O3)C2(O)O` [Geraniin, geraniin], the results for the IC50 in test [1] and in test [2] were 40 µg/mL (≈ 42 µM) and 100 µg/mL (≈ 105 µM), respectively. Further, the “tumor volume compared with the comparative control group (Saline)” value in test [3] and in test [4] was “significantly smaller” each time.
For the compound `O=C(O[C@@H]1O[C@@H]2COC(=O)c3cc(O)c(O)c(O)c3-c3c(cc(O)c(O)c3O)C(=O)O[C@H]2[C@H](OC(=O)c2cc(O)c(O)c(O)c2)[C@H]1OC(=O)c1cc(O)c(O)c(O)c1)c1cc(O)c(O)c(O)c1` [Eugeniin, eugeniin], the IC50 in test [1] was 5.6 µg/mL (≈ 5.97 µM); in test [2], 18 µg/mL (≈ 19.2 µM). Moreover, in test [5], the “tumor volume compared with the comparative control group (Saline)” value is “significantly smaller”.
